Laboratory results from patent publication US20110212899A1, “Corneal Neuritogenesis Promoter Containing Pacap and Its Derivative” (priority 2004, published 2011).
Where no end group is shown, it is not given here.

Columns and labels:
[1] = test system: rabbit cornea (corneal flap model); assay: Improving effect on reduced sensitivity of the rabbit cornea caused by using a microkeratome (2) (Test Example 7); type: in vivo; details: 0.01% eye drops, 50 μL 4 times a day for 8 weeks; 7 and 8 weeks after creation of the corneal flap
Description: (§1) Male Japanese white rabbits with a body weight of 1.5 to 2.0 kg purchased from Kitayama Labes Co., Ltd were used. The animals were each put in separate cages placed in a room wherein a temperature of 23±3° C. and a humidity of 55±10% were kept and a light was on for 12 hours per day (lighting at 8:00 and lights-out at 20:00), and raised after arrival until the final day of the test. The animals were given 100 g of solid feed (Labo R Stock, Nosan Corporation) per day, and could freely have tap water.
Peptide 24 was used as a test substance. The test substance was dissolved in the following vehicle solution at a concentration of 0.01% to prepare eye drops. […]
Corneal sensitivity was measured before the surgery and once a week from the first week to the eighth week after the surgery using the Cochet-Bonnet aesthesiometer.
Corneal sensitivity was determined by the frequency of eyeblink responses induced when a nylon filament attached to the Cochet-Bonnet aesthesiometer was contacted the center of the cornea of the animal. […] When the animal was judged to have corneal sensitivity twice or more, the maximum value (the longest length of the nylon filament of the aesthesiometer) was recorded as corneal sensitivity of the individual at that measurement time point. The measurement was blind trial so that an examiner could not know which group the rabbit being measured belonged to. […]

[2] = test system: excised rabbit lacrimal gland; assay: Promoting effect on protein secretion from an excised lacrimal gland (2) (Test Example 5); type: cell-based; details: 10^−7 M, incubated 60 minutes; p<0.05
Description: A lacrimal gland was excised from a rabbit and incubated in a solution containing PACAP27 or peptide 24, and changes in the amount of secreted protein were examined as lacrimal gland stimulating activity.
as §1, with “Japanese” for “Male Japanese”, “Fukusaki Rabbit warren” for “Kitayama Labes Co., Ltd”
PACAP27 and peptide 24 were used as test substances. Test substance solutions were prepared as follows. […]
The section sample in a stationary state was incubated in 0.5 mL of a fresh incubation solution at 37° C. for 20 minutes under a mixed gas atmosphere of 95% oxygen and 5% carbon dioxide. After completion of the incubation, the incubation solution was collected, and the protein amount in the solution was determined by using a protein staining reagent (DC Protein Assay Reagent, Bio Rad). […] The incubation solution was collected, and the protein amount in the incubation solution was determined. […]

For “His-Ser-Asp-Ala-Ile-Phe-Thr-Asp-Ser-Tyr-Ser-Arg-Tyr-Arg-Arg-Gln-Leu-Ala-Val-Arg-Arg-Tyr-Leu-Ala-Ala-Val-Leu-Gly-Arg-Arg-NH2 (HSDAIFTDSYSRYRRQLAVRRYLAAVLGRR-NH2) [Peptide 24]”, the “corneal sensitivity (Cochet-Bonnet aesthesiometer) compared with control group” value [1] was “statistically significant improving effect” and the “protein secretion rate of excised lacrimal gland compared with control group” value [2] was “significant increase”.
